According to US5869650A, “Dendroamide compounds and their use in chemosensitizing multidrug resistant cells” (Fox Chase Cancer Center, priority 1996, dated 1999):
pIC50: −log10 of the molar value. Entries after “also recorded” stand apart in the source; their conditions may differ.

Experiments:
MCF-7 cells = experiment: [3H]vinblastine accumulation in MCF-7 cells; format: cell-based; conditions: parental MCF-7 cells
Description: D. Smith et al., Mol. Pharm.
[^3 H]vinblastine was then added and its intracellular accumulation after 60 minutes was determined.

MDR cells = conditions: cited from earlier work
[1] = test system: MCF-7/VP cells (express multidrug resistance-related protein (MRP)); experiment: Chemosensitization of MCF-7/VP cells (sulforhodamine binding assay, cytotoxicity of anticancer drugs)
MCF-7/ADR cells = experiment: Chemosensitization of MCF-7/ADR cells (sulforhodamine binding assay, cell killing by anticancer drugs); format: cell-based
Description: FIGS. 2A and 2B show the chemosensitization of MCF-7/ADR breast carcinoma cells by Compound A. In FIG. 2A, MCF-7/ADR cells were treated with the indicated concentrations of Compound A in the presence of 15 μM daunomycin (.quadrature.), 200 nM actinomycin D (Δ) or 4 μM cisplatin (.largecircle.). In FIG. 2B, MCF-7 cells (.diamond-solid.) or MCF-7/ADR cells treated with 1% ethanol (.diamond.), 0.6 (.quadrature.) or 2.5 μM of Compound A (Δ) were incubated with the indicated concentrations of vinblastine.
The ability of Compound A to reverse MDR was examined using MCF-7/ADR cells breast carcinoma cells which were obtained as described in Example 5. The effects of Compound A on cell growth were characterized using the sulforhodamine binding assay (P. Skehan et al., J. Natl. Cancer Inst. 82:1107-1112 (1990)) as described in C. D. Smith et al., Oncology Res. 6:211-218 (1994) and C. D. Smith et al., Mol. Pharm. 45:241-247 (1995). Cell survival was assessed after 48 hours of treatment and was expressed as the percentage of cells killed.
The results of the chemosensitization tests showing the effect of the MDR reversing agent Compound A on cell killing by anticancer drugs in the multiple drug resistant MCF-7/ADR cells are shown in FIGS. 2A and 2B. The MCF-7/ADR cells were treated with the indicated concentrations of Compound A in the presence of daunomycin, actinomycin D and or cisplatin. Values shown in FIGS. 2A and 2B represent the mean±standard deviation for triplicate samples in one of two similar experiments.

[2] = test system: MCF-7/ADR cells (overexpress P-glycoprotein); experiment: [3H]vinblastine accumulation in MCF-7/ADR cells; format: cell-based
Description: The reduction in intracellular accumulation of anticancer drugs due to expression of P-glycoprotein can be at least partially reversed by compounds which interact with the drug transporter.
D. Smith et al., Mol. Pharm. 45:241-247 (1995), using 20 nm [^3 H]vinblastine sulfate (10-15 Ci/mmole) from the Amersham Corporation.
[^3 H]vinblastine was then added and its intracellular accumulation after 60 minutes was determined. Values shown in FIG. 1 represent the mean ± standard deviation accumulation of [^3 H]vinblastine in triplicate samples in one of three similar experiments.

P-glycoprotein [3] = molecular target: T1, P-glycoprotein (Homo sapiens, UniProt P08183)
T1 sequence (P08183 whole entry): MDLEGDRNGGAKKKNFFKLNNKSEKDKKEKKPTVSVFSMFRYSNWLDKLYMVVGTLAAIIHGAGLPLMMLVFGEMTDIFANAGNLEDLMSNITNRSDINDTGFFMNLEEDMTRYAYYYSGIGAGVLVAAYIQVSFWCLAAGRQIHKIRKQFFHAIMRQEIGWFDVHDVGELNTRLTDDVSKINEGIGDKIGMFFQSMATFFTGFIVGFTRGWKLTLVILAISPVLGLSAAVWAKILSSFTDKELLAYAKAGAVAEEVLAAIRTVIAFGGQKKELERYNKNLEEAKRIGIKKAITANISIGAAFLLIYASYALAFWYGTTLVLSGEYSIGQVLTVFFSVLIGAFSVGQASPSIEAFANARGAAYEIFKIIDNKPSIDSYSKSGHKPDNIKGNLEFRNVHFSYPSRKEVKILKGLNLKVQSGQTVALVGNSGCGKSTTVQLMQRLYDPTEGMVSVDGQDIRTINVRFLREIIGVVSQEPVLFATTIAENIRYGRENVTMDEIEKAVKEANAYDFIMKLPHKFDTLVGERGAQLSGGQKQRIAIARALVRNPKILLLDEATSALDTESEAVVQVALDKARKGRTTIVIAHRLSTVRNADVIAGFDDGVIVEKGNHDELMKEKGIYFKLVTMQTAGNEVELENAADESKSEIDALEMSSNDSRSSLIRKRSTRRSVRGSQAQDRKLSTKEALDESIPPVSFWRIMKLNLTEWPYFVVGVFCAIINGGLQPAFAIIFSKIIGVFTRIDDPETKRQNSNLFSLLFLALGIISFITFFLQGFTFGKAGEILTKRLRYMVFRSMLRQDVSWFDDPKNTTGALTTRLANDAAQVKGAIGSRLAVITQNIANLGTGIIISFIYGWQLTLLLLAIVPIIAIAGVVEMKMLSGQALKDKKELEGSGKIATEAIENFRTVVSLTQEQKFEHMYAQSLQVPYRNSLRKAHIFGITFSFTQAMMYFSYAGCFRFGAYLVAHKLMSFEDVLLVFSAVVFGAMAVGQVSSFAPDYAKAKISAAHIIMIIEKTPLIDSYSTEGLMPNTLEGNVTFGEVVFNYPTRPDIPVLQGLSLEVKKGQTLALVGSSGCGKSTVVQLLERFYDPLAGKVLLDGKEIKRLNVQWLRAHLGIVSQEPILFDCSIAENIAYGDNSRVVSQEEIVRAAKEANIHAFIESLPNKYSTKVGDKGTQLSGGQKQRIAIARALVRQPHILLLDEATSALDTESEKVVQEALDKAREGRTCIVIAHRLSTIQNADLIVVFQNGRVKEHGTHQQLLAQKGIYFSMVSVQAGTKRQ

P-glycoprotein [4] = molecular target: T1, P-glycoprotein; experiment: biochemical
[5] = Tsuruo et al., Cancer Res. 41:1967 (1981)

SMILES	effect on accumulation of [3H]vinblastine (in words) (MCF-7 cells)	intracellular accumulation of anticancer drugs (in words) (MDR cells; [5])	sensitization of MDR cells to anticancer drugs (in words) (MDR cells; [5])	reversing activity in cultured cells (in words) (MDR cells; cultured cells)	fold resistance of MCF-7/VP cells in comparison with MCF-7 cells ([1]; vincristine, MCF-7/VP vs MCF-7 cells)	active concentrations for chemosensitization (in words) (MCF-7/ADR cells; daunomycin or actinomycin D, FIG. 2A)	reversal of P-glycoprotein-mediated MDR (in words) (MCF-7/ADR cells; vinblastine, FIG. 2B)	effect on cell killing by actinomycin D (MCF-7/ADR cells; with actinomycin D (200 nM in FIG. 2A), 48 hours)	effect on cytotoxicity of cisplatin (MCF-7/ADR cells; with cisplatin (4 μM in FIG. 2A), 48 hours)	effect on cell killing by daunomycin (MCF-7/ADR cells; with daunomycin (15 μM in FIG. 2A), 48 hours)	effect on cell killing by vinblastine (MCF-7/ADR cells; with vinblastine, 48 hours)	reversal of MRP-mediated resistance to vincristine (in words) ([1]; MCF-7/VP cells, 10 μM, 48 hours)	effect on responses to cisplatin ([1]; MCF-7/VP cells, with cisplatin)	ability to increase the accumulation of [3H]vinblastine (in words) ([2]; Compound A compared with verapamil)	activity at 5 µM ([2]; Homo sapiens, NCI/ADR-RES, 1 h, 5 μM, 30 min preincubation, accumulation after 60 min, FIG. 1)	EC (maximal effect) ([2]; Homo sapiens, NCI/ADR-RES, 1 h, FIG. 1, read-out: concentration of maximal effect on [3H]vinblastine accumulation)	binding of [3H]azidopine to P-glycoprotein (in words) (P-glycoprotein [3])	pIC50 (P-glycoprotein [4])
COc1ccc(CCN(C)CCCC(C#N)(c2ccc(OC)c(OC)c2)C(C)C)cc1OC (stereo not shown) [verapamil]	Neither Compound A nor verapamil increased the accumulation	promote intracellular accumulation of those drugs	sensitize MDR cells to anticancer drugs	potent and effective reversing agent														
CC[C@]1(O)C[C@H]2CN(CCc3c([nH]c4ccccc34)[C@@](C(=O)OC)(c3cc4c(cc3OC)N(C=O)[C@H]3[C@@](O)(C(=O)OC)[C@H](OC(C)=O)[C@]5(CC)C=CCN6CC[C@]43[C@@H]65)C2)C1 [vincristine, reference compound]					15 fold													
Cc1oc2nc1C(=O)N[C@H](C(C)C)c1nc(cs1)C(=O)N[C@H](C)c1nc(cs1)C(=O)N[C@@H]2C [Compound A, Cyclo-D-Val-Tzl-D-Ala-Tzl-D-Ala-mOzl]	Neither Compound A nor verapamil increased the accumulation					activity at submicromolar concentrations	completely overcomes P-glycoprotein-mediated MDR	killed more effectively; also recorded: markedly potentiating cell killing	did not alter the cytotoxicity of cisplatin	killed more effectively; also recorded: markedly potentiating cell killing	markedly potentiating cell killing	fully reversed; also recorded: fully reverses MRP-mediated resistance	did not modulate responses to cisplatin	more potent than verapamil; also recorded: strongly enhanced	750%	20 µM	progressive decreases in binding	6.30
